One experiment has as its system mice. The experiment is described as follows: SnPP preconditioning against cisplatin nephrotoxicity. Format: in vivo. Also on record: P creatinine: unit not given here.
For a further experiment, the system named is CD-1 mice. As to the kind of experiment: RBT-3 preconditioning: cisplatin nephrotoxicity and renal cisplatin uptake. It is filed as in vivo. The note with it: cisplatin 15 mg/Kg IP ± 1 mg RBT-3 IV 18 hrs before, 3 days post cisplatin, mean ± SEM. The method, then: 4. […] Mice were injected with 1 mg RBT-3 or saline vehicle via the tail vein (n, 5 each). […] Free food and water were provided throughout. […] Plasma levels of the proximal tubule enzyme, N-acetyl glucosamidase (“NAG”), were also assessed (BioAssay Systems #DNAG-100; Hayward, Calif.). […] Statistics. Each sample was assayed in duplicate with the average being used for data presentation and analysis. The human hepcidin data are presented as means±1 SD. Baseline plasma hepcidin values for the HV and CKD groups were compared by unpaired Student's t test. Comparisons of hepcidin levels over time were analyzed by ANOVA for repeated measures with 95% confidence intervals being presented. Baseline demographic data were compared by unpaired Student's t test. Mouse data are given as means±1 SEM.

Setting [1] is: SnPP 1 umole or vehicle day zero, cisplatin 15 mg/kg day 1, 3 days post cisplatin.

The source of these data is patent US20220079984A1, “METHOD FOR TREATING CANCER WITH KIDNEY PROTECTION” (Renibus Therapeutics, Inc., priority 2020, published 2022).

Consider `N.N.[Cl][Pt][Cl]` [Cisplatin, cis-diammine dichloroplatinum II], for which, in the experiment with mice (3 days post cisplatin), the “HO-1 mRNA” value is 1.16 ± 0.28, the “IL-6 mRNA” value is recorded as 2.51 ± 1.65, the “MCP-1 mRNA” value worked out at 10.9 ± 5.7 and the “NGAL mRNA” value is 16.9 ± 12. In addition, the “P21 mRNAs” value in the experiment with mice (3 days post cisplatin) is reported as 4.23 ± 0.61. In the experiment on mice (setting [1]), this molecule registered a BUN of 103 ± 22 and a P creatinine of 0.94 ± 0.41. In addition, in the experiment on mice (renal cortical, 3 days post cisplatin), the “Tissue LDH” value was 754 ± 54. Moreover, in the experiment with CD-1 mice, the BUN stood at 105 ± 11 mg/dL, the Creat worked out at 0.7 ± 0.1 mg/dL and the “Plasma NAG” value is 19.5 ± 0.8 activity units/liter.

Consider `C=Cc1c2[n-]c(c1C)/C=c1\[n-]/c(c(C)c1C=C)=C\c1[n-]c(c(CCC(=O)O)c1C)/C=c1\[n-]c(c(C)c1CCC(=O)O)=C2.[Sn+4]` [SnPP, tin protoporphyrin], for which the “protection in cisplatin treated mice, compared to cisplatin alone” value in the experiment with mice (P<0.01) is listed as “statistically significant protection”.
